The record followed here is patent US6114334A, “Piperazine derivatives as therapeutic agents” (Knoll Aktiengesellschaft, priority 1995, dated 2000).

Experiment [1] deals with T1, 5-HT1A receptors (Rattus norvegicus, UniProt P19327).
T1 sequence (P19327 1-422): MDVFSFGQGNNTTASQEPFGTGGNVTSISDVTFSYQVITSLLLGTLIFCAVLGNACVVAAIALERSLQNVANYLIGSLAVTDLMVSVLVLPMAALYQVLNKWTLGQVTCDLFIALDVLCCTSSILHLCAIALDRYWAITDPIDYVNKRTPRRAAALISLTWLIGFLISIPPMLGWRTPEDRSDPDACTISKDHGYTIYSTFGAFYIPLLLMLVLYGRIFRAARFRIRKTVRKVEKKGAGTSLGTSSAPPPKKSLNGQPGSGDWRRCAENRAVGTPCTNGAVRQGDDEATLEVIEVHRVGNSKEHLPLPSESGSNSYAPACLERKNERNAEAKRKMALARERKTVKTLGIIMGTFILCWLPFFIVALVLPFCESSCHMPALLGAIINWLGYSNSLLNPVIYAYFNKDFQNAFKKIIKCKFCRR
As to the kind of experiment: inhibition of [3H]8-OH-DPAT binding to 5-HT1A receptors in vitro. The arrangement: species or system rat (male Sprague-Dawley, hippocampal tissue). Conditions: for Ki: [3H]8-OH-DPAT 2 nM, 25° C., 30 min; for inhibition at 1 µM: read-out: % displacement at 10^-6 M, 5-HT1A.

In experiment [2] the target is D2 dopamine receptors (Rattus norvegicus, UniProt P61169). Nature of the experiment: inhibition of tritiated (S)-sulpiride binding to D2 dopamine receptors in vitro. Particulars: rat striatum, tritiated (S)-sulpiride 1 nM, 4° C., 40 min. The arrangement: species or system rat (male Charles River CD, striatal tissue).
Sequence of D2 dopamine receptors (P61169 whole entry): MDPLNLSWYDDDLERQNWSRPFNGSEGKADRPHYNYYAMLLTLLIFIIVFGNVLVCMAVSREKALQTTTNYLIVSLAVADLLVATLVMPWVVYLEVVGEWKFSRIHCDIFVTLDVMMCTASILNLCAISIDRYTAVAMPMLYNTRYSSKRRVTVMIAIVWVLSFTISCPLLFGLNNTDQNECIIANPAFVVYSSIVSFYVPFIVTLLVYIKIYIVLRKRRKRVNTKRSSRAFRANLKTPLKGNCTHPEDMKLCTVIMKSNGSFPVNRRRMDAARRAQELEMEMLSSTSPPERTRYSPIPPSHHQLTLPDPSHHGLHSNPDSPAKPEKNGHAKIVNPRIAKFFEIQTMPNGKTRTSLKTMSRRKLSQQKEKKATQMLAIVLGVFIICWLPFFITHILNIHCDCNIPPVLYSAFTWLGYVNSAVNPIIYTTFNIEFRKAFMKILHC
Experiment [3] deals with α1-adrenoceptors. As to the kind of experiment: inhibition of 7-methoxy-[3H]prazosin binding to α1-adrenoceptors in vitro. The arrangement: species or system rat (male Charles River CD, whole cortical tissue). Conditions: rat whole cortex, 30 min; for Ki: 7-methoxy-[3H]prazosin 0.1 nM, 30° C.; for % displacement at 10^-6 M, α1: 7-methoxy-[3H]prazosin, 1 µM. As to the method: Whole cortical tissue from the brains of male Charles River CD rats weighing between 150-250 g were homogenised in ice-cold 50 mM Tris-HCl, pH 7.6 (at 25° C.; 1:40 w/v) and centrifuged at 1000 g at 4° C. for 10 minutes. The supernatant was centrifuged at 30,000 g at 4° C. for 10 minutes. The pellet was rehomogenised in 50 mM Tris-HCl, pH 7.6 (1:40 w/v) and centrifuged at 30,000 g at 4° C. for 10 minutes. The final pellet was resuspended in 50 mM Tris-HCl, pH 7.6 (equivalent to 12.5 mg wet weight of tissue/ml) and used immediately in the binding assay. Aliquots (400 μl; equivalent to 5 mg wet weight of tissue/tube) of this suspension were added to tubes containing the ligand (50 μl; 0.1 nM) and distilled water (50 μl; total binding) or phentolamine (50 μl; 5 μM; non-specific binding) or test compound (50 μl; at a single concentration of 10^-6 M or at 10 concentrations ranging from 10^-11 -10^-3 M). The ligand was 7-methoxy-[^3 H]prazosin and the mixture was incubated at 30° C. for 30 minutes before the incubation was terminated by rapid filtration. The filters were washed with ice-cold Tris-HCl buffer and dried. The filters were punched out into vials, scintillation fluid added and radioactivity determined by liquid scintillation counting. The percentage displacement of specific binding of the tritiated ligand was calculated for the single concentration (10^-6 M) of test compound. […] The concentration which gave 50% inhibition of specific binding (IC50) was obtained from the curve. The inhibition coefficient Ki was then calculated using the formula [formula] in which [ligand] is the concentration of the tritiated ligand used and KD is the equilibrium dissociation constant for the ligand.

Experiment [4] deals with T2, α2D-adrenoceptors (Rattus norvegicus, UniProt P22909).
T2 sequence (P22909 1-465): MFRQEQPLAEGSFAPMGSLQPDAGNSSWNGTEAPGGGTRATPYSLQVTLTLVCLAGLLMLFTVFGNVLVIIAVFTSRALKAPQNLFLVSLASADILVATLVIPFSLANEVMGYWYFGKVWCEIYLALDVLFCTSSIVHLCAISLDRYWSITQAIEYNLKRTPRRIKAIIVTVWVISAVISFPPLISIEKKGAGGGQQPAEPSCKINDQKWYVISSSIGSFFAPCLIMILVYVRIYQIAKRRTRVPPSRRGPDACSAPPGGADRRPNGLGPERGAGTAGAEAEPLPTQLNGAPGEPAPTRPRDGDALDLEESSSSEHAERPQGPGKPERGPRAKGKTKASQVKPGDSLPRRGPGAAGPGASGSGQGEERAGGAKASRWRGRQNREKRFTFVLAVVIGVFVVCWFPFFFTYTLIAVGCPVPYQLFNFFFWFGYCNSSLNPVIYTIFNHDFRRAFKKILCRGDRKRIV
As to the kind of experiment: inhibition of tritiated idazoxan binding to α2D-adrenoceptors in vitro. The arrangement: species or system rat (male Charles River CD, frontal cortical tissue). Conditions: rat frontal cortex; for Ki: [3H]idazoxan 1 nM, 0° C., 75 min; for inhibition at 1 µM: 10^-6 M, [3H]idazoxan, read-out: % displacement at 10^-6 M, α2D.

[5] abbreviates: 10^-6 M, rat hippocampus, [3H]8-OH-DPAT.

Counter-ions that a name gives are not always drawn. Like-named read-outs stand apart in the source and are kept apart here. Some results are limits rather than exact numbers.

As to `C=CCn1c(-c2ccccn2)nn(CN2CCN(c3ccccc3OC)CC2)c1=S` [Example 58, 4-Allyl-2-[4-(2-methoxyphenyl)piperazin-1-ylmethyl]-5-(2-pyridyl)-1,2,4-triazole-3(2H,4H)-thione], the Ki is 126 nM in experiment [1] (rat hippocampus), 173 nM in experiment [2], 301 nM in experiment [3] and 104 nM in experiment [4].

Regarding `C=CCn1c(C)nn(CN2CCN(c3ccccc3OC)CC2)c1=S` [Example 59, 4-Allyl-2-[4-(2-methoxyphenyl)piperazin-1-ylmethyl]-5-methyl-1,2,4-triazole-3(2H,4H)-thione], the Ki in experiment [1] (rat hippocampus) is 119 nM; in experiment [2] it was 306 nM; in experiment [3] it was 497 nM; in experiment [4] it was 255 nM.

Take `C=CCn1c(-c2cccs2)nn(CN2CCN(c3ccccc3OC)CC2)c1=S` [Example 60, 4-Allyl-2-[4-(2-methoxyphenyl)piperazin-1-ylmethyl]-5-(2-thienyl)-1,2,4-triazole-3(2H,4H)-thione]: the Ki in experiment [1] (rat hippocampus) came to 138 nM; in experiment [2] it was 155 nM; in experiment [3], 159 nM; in experiment [4], 82 nM.

For `C=CCn1c(-c2cccnc2)nn(CN2CCN(c3cccc(C)c3C)CC2)c1=S` [Example 61, 4-Allyl-2-[4-(2,3-dimethylphenyl)piperazin-1-ylmethyl]-5-(3-pyridyl)-1,2,4-triazole-3(2H,4H)-thione], the inhibition at 1 µM in experiment [1] (setting [5]) and in experiment [4] was 52% each time. Besides, the Ki in experiment [2] and in experiment [3] was > 500 nM throughout.

For the molecule `C=CCn1c(-c2ccc(Cl)cc2)nn(CN2CCN(c3ccccc3OC)CC2)c1=S` [Example 62, 4-Allyl-5-(4-chlorophenyl)-2-[4-(2-methoxyphenyl)piperazin-1-ylmethyl]-1,2,4-triazole-3(2H,4H)-thione], the inhibition at 1 µM in experiment [1] (setting [5]) came out at 77%; in experiment [4], 68%. Also, the Ki in experiment [2] was found to be 201 nM. In addition, the “% displacement at 10^-6 M, α1” value in experiment [3] came to 59%.

Take `C=CCn1c(-c2cccnc2)nn(CN2CCN(c3ccccc3OC)CC2)c1=O` [Example 63, 4-Allyl-2-[4-(2-methoxyphenyl)piperazin-1-ylmethyl]-5-(3-pyridyl)-1,2,4-triazol-3(2H,4H)-one]: the inhibition at 1 µM was 74% in experiment [1] (setting [5]) and 66% in experiment [4]. Also, the Ki in experiment [2] was 193 nM; in experiment [3] it was > 500 nM.

With `C=CCn1c(-c2cccnc2)nn(CCCCN2CCN(c3cccc(C)c3C)CC2)c1=O` [Example 64, 4-Allyl-2-{4-[4-(2,3-dimethylphenyl)piperazin-1-yl]butyl}-5-(3-pyridyl)-1,2,4-triazol-3(2H,4H)-one 1.5 maleate], the results for the inhibition at 1 µM in experiment [1] (setting [5]) and in experiment [4] were 90% and 84%, respectively. Moreover, in experiment [2], the affinity, expressed as Ki, was 93 nM. In addition, the “% displacement at 10^-6 M, α1” value in experiment [3] was found to be 98%.

For the molecule `C=CCn1c(-c2cccnc2)nn(CCN2CCN(c3cccc(C)c3C)CC2)c1=O` [Example 65, 4-Allyl-2-{2-[4-(2,3-dimethylphenyl)piperazin-1-yl]ethyl}-5-(3-pyridyl)-1,2,4-triazol-3(2H,4H)-one 2.8 hydrochloride], the inhibition at 1 µM in experiment [1] (setting [5]) stood at 63%. In addition, the Ki in experiment [2] and in experiment [4] was > 500 nM in each case. For the same molecule, the “% displacement at 10^-6 M, α1” value in experiment [3] worked out at 56%.

Consider `C=CCn1c(-c2ccccc2)nn(CCCCN2CCN(c3ccccc3OC)CC2)c1=O.Cl.Cl` [Example 66, 4-Allyl-2-{4-[4-(2-methoxyphenyl)piperazin-1-yl]butyl}-5-phenyl-1,2,4-triazol-3(2H,4H)-one dihydrochloride], for which, in experiment [1], the inhibition at 1 µM was 92%. In addition, the Ki in experiment [2] was 169 nM; in experiment [4] it was > 500 nM. For the same molecule, the “% displacement at 10^-6 M, α1” value in experiment [3] is 99%.

Turning to `C=CCn1c(-c2cccnc2)nn(CCN2CCN(c3ccccc3OC)CC2)c1=O.Cl.Cl` [Example 67, 4-Allyl-2-{2-[4-(2-methoxyphenyl)piperazin-1-yl]ethyl}-5-(3-pyridyl)-1,2,4-triazol-3(2H,4H)-one dihydrochloride], in experiment [1], the inhibition at 1 µM amounted to 52%. For the same molecule, the Ki in experiment [2] and in experiment [4] was > 500 nM in each case. Further, the “% displacement at 10^-6 M, α1” value in experiment [3] was 78%.

In the case of `C=CCn1c(-c2ccccc2)nn(CCN2CCN(c3ccccc3OC)CC2)c1=O.O=C(O)/C=C/C(=O)O` [Example 68, 4-Allyl-2-{2-[4-(2-methoxyphenyl)piperazin-1-yl]ethyl}-5-phenyl-1,2,4-triazol-3(2H,4H)-one monofumarate], in experiment [1] (setting [5]), the inhibition at 1 µM was 56%. For the same molecule, the Ki in experiment [2] and in experiment [4] was > 500 nM in each case. The “% displacement at 10^-6 M, α1” value in experiment [3] was determined as 67%.

As for `C=CCn1c(-c2cccs2)nn(CCN2CCN(c3ccccc3OC)CC2)c1=O` [Example 69, 4-Allyl-2-{2-[4-(2-methoxyphenyl)piperazin-1-yl]ethyl}-5-(2-thienyl)-1,2,4-triazol-3(2H,4H)-one], the inhibition at 1 µM in experiment [1] (setting [5]) was determined as 70%. In addition, the Ki in experiment [2] and in experiment [4] was > 500 nM throughout. For the same molecule, the “% displacement at 10^-6 M, α1” value in experiment [3] is listed as 93%.

On to `C=CCn1c(C)nn(CCN2CCN(c3ccccc3OC)CC2)c1=O` [Example 70, 4-Allyl-2-{2-[4-(2-methoxyphenyl)piperazin-1-yl]ethyl}-5-methyl-1,2,4-triazol-3(2H,4H)-one], for which, in experiment [1] (setting [5]), the inhibition at 1 µM was 69%. For the same molecule, the results for the Ki in experiment [2] and in experiment [4] were 310 nM and > 500 nM, respectively. Moreover, the “% displacement at 10^-6 M, α1” value in experiment [3] was 64%.

For `C=CCn1c(-c2cccnc2)nn(CCN2CCN(c3ccccc3C)CC2)c1=O` [Example 71, 4-Allyl-2-{2-[4-(2-methylphenyl)piperazin-1-yl]ethyl}-5-(3-pyridyl)-1,2,4-triazol-3(2H,4H)-one], the Ki in experiment [1] (rat hippocampus), in experiment [2] and in experiment [4] was > 500 nM in each case. The “% displacement at 10^-6 M, α1” value in experiment [3] amounted to 56%.

Consider `C=CCn1c(-c2cccnc2)nn(CCCN2CCN(c3ccccc3OC)CC2)c1=O.Cl.Cl.Cl` [Example 72, 4-Allyl-2-{3-[4-(2-methoxyphenyl)piperazin-1-yl]propyl}-5-(3-pyridyl)-1,2,4-triazol-3(2H,4H)-one trihydrochloride], for which the Ki in experiment [1] (rat hippocampus), in experiment [2] and in experiment [4] was > 500 nM each time. For the same molecule, the “% displacement at 10^-6 M, α1” value in experiment [3] was 91%.

As a reminder, the Ki is a measure of affinity in units of concentration, obtained from inhibition or displacement. The low end stands for a stronger hold on the target, the high end for a looser hold on the target.
